The values that follow come from article PMC10683472, “Deep Learning-Driven Library Design for the De Novo Discovery of Bioactive Thiopeptides” (ACS Central Science, 2023).

*1 amine or outer side, *2 acyl side, *3 side chain or, on linkers, in order; H or OH if unused. Where a SMILES comes first, the peptide text is derived from it. Where no end group is shown, it is not given here. [ ]: non-standard residue; d: D form. hGln = L-homoglutamine, NC(=O)CCC[C@H](N[*:1])C(=O)[*:2]; pyridine‑bisazole = not defined here; Nle = CCCC[C@H](N)C(=O)O; Dha = C=C(N)C(=O)O

For data set [1], the target named is T1, TLR10 (Homo sapiens, UniProt Q9BXR5).
T1 sequence (Q9BXR5 20-576): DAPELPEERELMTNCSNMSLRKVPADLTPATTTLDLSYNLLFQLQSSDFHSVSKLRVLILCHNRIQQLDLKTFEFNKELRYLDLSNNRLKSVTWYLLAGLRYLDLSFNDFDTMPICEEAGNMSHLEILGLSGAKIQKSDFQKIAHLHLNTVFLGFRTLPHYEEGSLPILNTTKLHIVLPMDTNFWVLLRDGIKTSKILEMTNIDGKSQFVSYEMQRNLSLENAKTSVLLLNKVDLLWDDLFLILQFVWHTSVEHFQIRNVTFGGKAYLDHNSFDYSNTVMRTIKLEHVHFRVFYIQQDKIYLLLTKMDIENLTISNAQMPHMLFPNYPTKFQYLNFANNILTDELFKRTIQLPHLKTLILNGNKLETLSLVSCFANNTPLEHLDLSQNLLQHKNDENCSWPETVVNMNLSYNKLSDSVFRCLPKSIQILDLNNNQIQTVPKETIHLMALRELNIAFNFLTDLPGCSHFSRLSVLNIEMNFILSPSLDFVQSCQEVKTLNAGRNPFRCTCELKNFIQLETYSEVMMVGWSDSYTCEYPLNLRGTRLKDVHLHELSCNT
Nature of the data set: Single-round mRNA display binding assay (qPCR), TLR10. As to conditions: ratio of cDNA recoveries (qPCR), TLR10 pulldown over beads only, single-round selection. (Quantitative PCR measures a nucleic acid by following its amplification.)

The target of data set [2] is T2, Human TLR10 Fc Chimera protein (extracellular domain) (Homo sapiens, UniProt Q9BXR5).
T2 construct: Chimera protein (extracellular domain, amino acid 20-576;); Fc (chimera); purchased R&D system #6619-TR-050
T2 sequence (Q9BXR5 20-576): T1 sequence (Q9BXR5 20-576)
Description: Surface plasmon resonance binding to TLR10. The settings on record: SPR. The procedure:
Reagents were purchased from Nacalai Tesque, Wako Pure Chemical Industries, Sigma-Aldrich Japan, or TCI Chemicals and were used as received. […]
Anti-HA magnetic beads were from Pierce Thermo […]
2000c spectrophotometer (Thermo Scientific) equipped with a 5 mm pathlength quartz cuvette using extinction coefficient values calculated with ExPASy ProtParam tool (https://web.expasy.org/protparam). […]
Biochemical measurements (sections 2.10 – 2.14) were performed in triplicate or more. Most […]
determination of biophysical parameters involved cell assay (CP50 and IC50), reported are standard errors of the fit; otherwise, error bars are standard deviations. […]

Data set [3] addresses T1, TLR10. Description: mRNA display affinity selection against TLR10, NGS abundance. Details: Chimera protein (extracellular domain, amino acid 20-576;); Fc (chimera); purchased R&D system #6619-TR-050. As to conditions: TLR10 selection, NGS abundance rank. The class given is binding.
The next data set in a line: Serum stability assay. The class given is in vitro ADME. The settings on record: human serum, 37 °C, LC/MS; for half-life at 10 µM: pH 7.6, read-out: serum stability τ1/2 (converted). The procedure: Next, we tested the metabolic stability of the discovered thiopeptides. The compounds were incubated in human serum at 37 °C in the presence of an internal control, and the amounts of the remaining analytes were quantified by LC/MS (Figures S27 and 28). […] At the other extreme, IR11 rapidly degraded in human serum with τ1/2 = 0.5 h. […]
Kinetic parameters and affinities of the […]
2.12. Thiopeptide metabolic stability experiments
The mixtures were stirred
well and transferred to a 37 °C thermostat. […]

Data set [4] has as its target T3, toll-like receptor 10, extracellular domain (UniProt Q9BXR5 20-576).
T3 construct: toll-like receptor 10 (TLR10), extracellular domain; also called TLR10; TLR10 cell surface receptor
T3 sequence (looked up): T1 sequence (Q9BXR5 20-576)
Nature of the data set: SPR; surface plasmon resonance of synthetic thiopeptides on their target protein; conditions in S.I. 2.10 (not shown). As to conditions: both partners purified. Background: In SPR one partner is held on a chip, and binding of the other changes the refractive index at the surface.

For orientation: koff means the rate constant with which the complex falls apart. The low end stands for a long-lived complex, the high end for a short-lived complex. In general, kon refers to a measure of how fast the partners come together. A high value points to fast association. Turning to `C=C1NC(=O)[C@H](Cc2c[nH]cn2)NC(=O)[C@H]([C@@H](C)CC)NC(=O)[C@H](C(C)C)NC(=O)[C@H](C(C)C)NC(=O)[C@H](CC(N)=O)NC(=O)[C@H](C(C)C)NC(=O)[C@H](CCCNC(=N)N)NC(=O)[C@H](CO)NC(=O)[C@H](CC(C)C)NC(=O)[C@H](CCC(=O)O)NC(=O)[C@H](CC(C)C)NC(=O)[C@H](CO)NC(=O)[C@H](Cc2c[nH]c3ccccc23)NC(=O)c2ccc(-c3nc(C(=O)OC)cs3)nc2-c2csc1n2` [TL20] (HELM PEPTIDE1{W.S.L.E.L.S.R.V.N.V.V.I.H}|CHEM1{[C=C(N[*:2])c1nc(-c2nc(-c3nc(C(=O)OC)cs3)ccc2C(=O)[*:1])cs1]}$PEPTIDE1,CHEM1,1:R1-1:R1|PEPTIDE1,CHEM1,13:R2-1:R2$$$V2.0; bridges inferred), the “display P/N ratio” value at TLR10 [1] was found to be 286. In data set [2], this molecule registered a koff of 0.0078 s⁻¹ and a kon of 25500 M⁻¹ s⁻¹. The “rank in pulldown(–)” value on TLR10 [3] is listed as 52. For the same molecule, in “Serum stability assay”, the “serum stability τ1/2” value was 38 h and the half-life at 10 µM is 38.2 ± 6 h.
Take `C=C1NC(=O)[C@H](CCCC(N)=O)NC(=O)[C@H](Cc2ccc(O)cc2)NC(=O)[C@H](CC(C)C)NC(=O)[C@H](CCCC)NC(=O)[C@H](CC(N)=O)NC(=O)[C@H]([C@@H](C)O)NC(=O)[C@H](CCC(N)=O)NC(=O)[C@H](CCCCN)NC(=O)[C@H]([C@@H](C)CC)NC(=O)[C@H](CC(C)C)NC(=O)[C@H](CC(C)C)NC(=O)[C@H](C)NC(=O)[C@H](Cc2c[nH]c3ccccc23)NC(=O)c2ccc(-c3nc(C(=O)OC)cs3)nc2-c2csc1n2` [TL17] (HELM PEPTIDE1{W.A.L.L.I.K.Q.T.N.[Nle].L.Y.[O=C([C@H](CCCC(=O)[*:3])N[*:1])[*:2]]}|PEPTIDE2{[am]}|CHEM1{[C=C(N[*:2])c1nc(-c2nc(-c3nc(C(=O)OC)cs3)ccc2C(=O)[*:1])cs1]}$PEPTIDE1,PEPTIDE2,13:R3-1:R1|PEPTIDE1,CHEM1,1:R1-1:R1|PEPTIDE1,CHEM1,13:R2-1:R2$$$V2.0; bridges inferred): the “display P/N ratio” value at TLR10 [1] is given as 737. In data set [2], this molecule showed a koff of 0.0067 s⁻¹ and a kon of 18900 M⁻¹ s⁻¹. Also, the “rank in pulldown(–)” value at TLR10 [3] worked out at 9. For the same molecule, the “rank in pulldown(+)” value at TLR10 [3] (–: not found in the final pulldown(+) libraries at the sequenced depth) is reported as 10. In “Serum stability assay”, the half-life at 10 µM is 6 ± 0.1 h.

B1: thiopeptide TL19 (synthetic) (peptide)
chain: SWIGRV[Nle]IK[Dha]SSCSC
modifications: bridge (positions not given here) via pyridine‑bisazole; not fully specified (residue 11); reading uncertain; also: Ser11 is an oxazole, macrocycle closed through a pyridine-bisazole moiety
In general, Kd refers to the concentration at which binding is half-saturated. B1: the affinity in data set [4], expressed as Kd, was 570 nM.

B2: thiopeptide TL6 (synthetic) (peptide)
chain: SWT[Nle]LFRLQSKLAISCSC
modifications: bridge (positions not given here) via pyridine‑bisazole; reading uncertain; also: macrocycle closed through a pyridine-bisazole moiety, oxazole to thiazole change
In turn, B2 displayed a Kd in data set [4] of 630 nM.

B3: thiopeptide TL3 (synthetic) (peptide)
chain: SW[hGln]ISFWLQRKVAFSCSC
modifications: bridge (positions not given here) via pyridine‑bisazole; reading uncertain; also: macrocycle closed through a pyridine-bisazole moiety, oxazole to thiazole change
B3 came in with a Kd in data set [4] of 890 nM.

B4: thiopeptide TL17 (synthetic) (peptide)
chain: SWALLIKQIN[Nle]LY[hGln]SCSC
modifications: bridge (positions not given here) via pyridine‑bisazole; reading uncertain; also: macrocycle closed through a pyridine-bisazole moiety, oxazole to thiazole change
In data set [4], B4 returned a Kd of 360 nM.

B5: thiopeptide TL4 (synthetic) (peptide)
chain: SWTIRFTNQNKIAFSCSC
modifications: bridge (positions not given here) via pyridine‑bisazole; reading uncertain; also: macrocycle closed through pyridine-bisazole moiety, oxazole to thiazole change
In turn, B5 registered a dissociation constant Kd in data set [4] of 680 nM.
